Tests used:
[1] = system: experimental thrombosis (induced either by stasis or by the injection of thrombin), endotoxin shock, DIC; settings: cited from earlier work
[2] = intravenously to dogs, even in high doses; cited from earlier work
[3] = system: other enzymes of the blood coagulation cascade; settings: natural hirudin; cited from earlier work
[4] = tolerability (hypersensitivity, allergic reactions, harmlessness); settings: in vivo
toxicity in rats = format: in vivo; settings: dose 1 g/kg
[5] = system: thrombin from human plasma; experiment: thrombin-inhibition test with Chromozym TH; format: biochemical; settings: for Thrombin inhibition (%): Experimental conditions No. 1, Table 1
Procedure: The cells (50 ml of the growing culture) are harvested and resuspended in 5 ml of a solution of 50 mM tris.HCl (pH 8.0) and 30 mM NaCl. Subsequently, the suspension is shaken with 5 g of cooled glass beads (diameter 0.5 mm), or by the addition of lysozyme (Boehringer), final concentration 1 mg/ml, at intervals during 30 to 45 minutes on a Multi-Tube Vortexer at high intensity. 0.5 ml of 2% acetic acid are added to 0.5 ml of the mixture which is then centrifuged at 12,000 revs/min for 20 minutes at 4° C. The supernatant solution is examined for hirudin activity (inhibition of thrombin). The thrombin-inhibition test is carried out as follows:
The test is based on the determination of the enzymatic removal of p-nitroaniline from the substrate Chromozym TH (tosyl-glycyl-prolyl-arginine-4-nitroanilide-acetate). […] The reaction time is 2 hours at 37° C. in the incubation chamber. For the test, 20 μl of the solution to be determined is diluted with 30 μl of filling buffer (0.2M tris.HCl pH 7.5, 1M NaCl, 100 μg/ml bovine serum albumin), and 20 μl of enzyme solution [10 mg of lyophilised thrombin from human plasma (Boehringer) dissolved in 1 ml of bidistilled water and diluted approximately 1:400 with the above filling buffer] and 150 μof substrate solution [[…] chromozym TH (Boehringer) dissolved in 4 ml of bidistilled water and diluted 1:15 with the above filling buffer] are added. All solutions are measured against a blank solution consisting of 70 μl of filling buffer (see above) and 150 μl of substrate solution and against an enzyme control solution consisting of 50 μl of filling buffer, 20 μl of enzyme solution and 150 μl of substrate solution. […] The thrombin inhibition (as a %) of the samples is calculated in accordance with the following formula: [formula]

[6] = system: other enzymes of the blood coagulation cascade; experiment: action on other enzymes/proteinases of the blood coagulation system; format: biochemical; settings: desulphatohirudin

| Substance | direct comparison tests with heparin ([1]; in vivo) | efficacy in experimental thrombosis, endotoxin shock and DIC ([1]; rats, pigs and dogs) | effect on heart rate, respiration, blood pressure, thrombocyte count, fibrinogen and haemoglobin [2] | inhibition of other enzymes of the blood coagulation cascade [3] | hypersensitivity reactions or allergic reactions [4] | active toxicity (toxicity in rats) | thrombin inhibition ([5]; HPLC fraction from S. cerevisiae GRF18/pJDB207R/PH05-HIR, conditions as in Example 26a) [%] | Thrombin inhibition (%) ([5]; RP-HPLC fractions) | Thrombin inhibition (%) ([5]; RP-HPLC fractions, listed as Fr 14) | Thrombin-inhibition % ([5]; RP-HPLC fractions, Experimental conditions No. 2, Table 2) [%] | specificity to thrombin / interactions with other proteinases of the blood coagulation system [6] |
| --- | --- | --- | --- | --- | --- | --- | --- | --- | --- | --- | --- |
| hirudin | superior to heparin | effective | No effect | not inhibited |  |  |  |  |  |  |  |
| desulphatohirudin |  |  |  |  | no hypersensitivity reactions or allergic reactions | no toxic effects | 89.6 | 86 | 79 | 97.3 ± 2 | completely specific to thrombin |

Reference: US5422249A, “Process for the manufacture of thrombin inhibitors” (Ciba-Geigy Corporation, priority 1984, dated 1995)
